Test results: patent US12581252B2, “Substituted pyrrolo[3,4-b]pyridines as PI3K-α inhibitors” (Relay Therapeutics, Inc., priority 2020, dated 2026)
pIC50: −log10 of the molar value.

Columns and labels:
H1047R PIK3CA enzyme = H1047R PIK3CA enzyme (Homo sapiens, UniProt P42336, H1047R); assay: ADP-Glo Biochemical PIK3CA Kinase Assay
cells = details: Homo sapiens, MCF-10A, read-out: MCF10A IC50

Sequence of H1047R PIK3CA enzyme (P42336 whole entry H1047R): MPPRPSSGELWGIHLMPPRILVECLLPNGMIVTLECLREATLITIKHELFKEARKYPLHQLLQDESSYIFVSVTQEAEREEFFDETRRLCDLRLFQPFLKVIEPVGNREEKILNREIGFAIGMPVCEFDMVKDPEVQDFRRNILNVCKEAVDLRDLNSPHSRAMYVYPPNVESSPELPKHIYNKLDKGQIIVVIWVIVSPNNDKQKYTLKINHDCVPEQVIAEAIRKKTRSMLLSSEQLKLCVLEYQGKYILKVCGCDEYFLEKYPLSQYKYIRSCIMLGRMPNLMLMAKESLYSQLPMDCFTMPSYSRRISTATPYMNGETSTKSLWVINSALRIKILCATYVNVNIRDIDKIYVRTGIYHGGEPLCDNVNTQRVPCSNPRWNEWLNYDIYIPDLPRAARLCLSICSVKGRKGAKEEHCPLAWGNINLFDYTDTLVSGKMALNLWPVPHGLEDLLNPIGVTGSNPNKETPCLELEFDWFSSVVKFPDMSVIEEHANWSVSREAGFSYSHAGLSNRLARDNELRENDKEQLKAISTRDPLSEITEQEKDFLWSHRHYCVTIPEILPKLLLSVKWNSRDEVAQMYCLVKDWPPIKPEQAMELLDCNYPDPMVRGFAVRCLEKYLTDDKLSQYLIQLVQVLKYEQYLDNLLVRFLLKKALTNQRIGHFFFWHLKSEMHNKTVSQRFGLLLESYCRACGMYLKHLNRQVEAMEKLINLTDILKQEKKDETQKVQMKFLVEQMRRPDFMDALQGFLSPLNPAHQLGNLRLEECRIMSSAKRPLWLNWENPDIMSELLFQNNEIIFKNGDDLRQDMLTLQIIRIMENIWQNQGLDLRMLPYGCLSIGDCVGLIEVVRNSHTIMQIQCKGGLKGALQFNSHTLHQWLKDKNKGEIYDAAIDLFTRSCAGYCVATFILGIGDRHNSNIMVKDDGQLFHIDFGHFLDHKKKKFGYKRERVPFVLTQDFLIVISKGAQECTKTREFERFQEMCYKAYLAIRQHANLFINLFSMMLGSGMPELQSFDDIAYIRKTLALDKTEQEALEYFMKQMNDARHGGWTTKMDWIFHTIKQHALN
Sequence of H1047R PIK3CA enzyme (P27986 whole entry partner): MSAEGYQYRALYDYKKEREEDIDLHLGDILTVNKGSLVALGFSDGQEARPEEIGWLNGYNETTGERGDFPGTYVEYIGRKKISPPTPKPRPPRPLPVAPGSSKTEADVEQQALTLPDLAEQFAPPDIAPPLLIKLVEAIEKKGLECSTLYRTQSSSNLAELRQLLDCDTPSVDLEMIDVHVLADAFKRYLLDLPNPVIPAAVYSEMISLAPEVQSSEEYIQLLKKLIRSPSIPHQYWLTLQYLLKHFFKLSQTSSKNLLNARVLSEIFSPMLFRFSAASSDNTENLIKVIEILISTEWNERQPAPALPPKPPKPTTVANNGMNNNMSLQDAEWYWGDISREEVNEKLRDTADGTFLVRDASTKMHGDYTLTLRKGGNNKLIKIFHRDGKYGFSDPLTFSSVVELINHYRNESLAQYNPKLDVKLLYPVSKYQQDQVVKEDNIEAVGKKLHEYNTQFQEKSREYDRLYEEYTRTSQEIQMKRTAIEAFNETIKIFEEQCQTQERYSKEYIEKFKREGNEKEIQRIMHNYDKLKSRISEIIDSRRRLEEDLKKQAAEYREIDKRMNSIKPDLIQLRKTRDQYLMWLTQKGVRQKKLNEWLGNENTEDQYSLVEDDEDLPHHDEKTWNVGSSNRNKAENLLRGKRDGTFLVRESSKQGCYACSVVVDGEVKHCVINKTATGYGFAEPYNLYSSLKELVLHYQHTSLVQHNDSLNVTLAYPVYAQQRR

Cc1ccccc1C1NC(=O)c2cccc(NC(=O)c3csc4ccccc34)c21 (stereo not drawn) [Compound I-1, N-(1-Oxo-3-(o-tolyl)isoindolin-4-yl)benzo[b]thiophene-3-carboxamide]
pIC50 (H1047R PIK3CA enzyme): 6.30 to 7.00
pIC50 (cells): 5.30 to 6.00

Cc1ccccc1[C@@H]1NC(=O)c2cccc(NC(=O)c3csc4ccccc34)c21 [Compound I-5]
pIC50 (H1047R PIK3CA enzyme): ≥ 7.00
pIC50 (cells): 5.30 to 6.00

Cc1ccccc1C1NC(=O)c2cccc(NC(=O)c3nsc4ccccc34)c21 (stereo not drawn) [Compound I-13, N-(1-Oxo-3-(o-tolyl)isoindolin-4-yl)benzo[d]isothiazole-3-carboxamide]
pIC50 (H1047R PIK3CA enzyme): 6.30 to 7.00
pIC50 (cells): 5.30 to 6.00

Cc1ccccc1C1NC(=O)c2cccc(NC(=O)c3coc4ccc(F)cc34)c21 (stereo not drawn) [Compound I-19]
pIC50 (H1047R PIK3CA enzyme): 6.00 to 6.30
pIC50 (cells): 5.30 to 6.00

O=C1N[C@@H](c2cccc(F)c2F)c2c(NC(=O)c3csc4ccccc34)ccnc21 [Compound I-22]
pIC50 (H1047R PIK3CA enzyme): 6.00 to 6.30
pIC50 (cells): 5.30 to 6.00

[2H]C1(c2ccccc2C)NC(=O)c2cccc(NC(=O)c3csc4ccccc34)c21 (stereo not drawn) [Compound I-25]
pIC50 (H1047R PIK3CA enzyme): ≥ 7.00
pIC50 (cells): 5.30 to 6.00

Cc1ccccc1C1NC(=O)c2cccc(NC(=O)c3csc4ccc(F)cc34)c21 (stereo not drawn) [Compound I-26]
pIC50 (H1047R PIK3CA enzyme): 6.30 to 7.00
pIC50 (cells): 5.30 to 6.00

Cc1ccccc1C1NC(=O)c2cc(Br)cc(NC(=O)c3csc4ccccc34)c21 (stereo not drawn) [Compound I-29, N-[6-bromo-3-(2-methylphenyl)-1-oxo-2,3-dihydro-1H-isoindol-4-yl]-1-benzothiophene-3-carboxamide]
pIC50 (H1047R PIK3CA enzyme): ≥ 7.00
pIC50 (cells): > 6.00

O=C1N[C@H](c2ccccc2Cl)c2c(NC(=O)c3csc4ccccc34)ccnc21 [Compound I-33]
pIC50 (H1047R PIK3CA enzyme): 6.30 to 7.00
pIC50 (cells): 5.30 to 6.00

Cc1ccccc1C1NC(=O)c2cc(N)cc(NC(=O)c3csc4ccccc34)c21 (stereo not drawn) [Compound I-34]
pIC50 (H1047R PIK3CA enzyme): ≥ 7.00
pIC50 (cells): 5.30 to 6.00

COc1ccc(NC(=O)c2csc3ccccc23)c2c1C(=O)NC2c1ccccc1C (stereo not drawn) [Compound I-35]
pIC50 (H1047R PIK3CA enzyme): ≥ 7.00
pIC50 (cells): 5.30 to 6.00

Cc1ccccc1[C@H]1NC(=O)c2cccc(NC(=O)c3csc4c(F)cccc34)c21 [Compound I-38]
pIC50 (H1047R PIK3CA enzyme): 6.30 to 7.00
pIC50 (cells): 5.30 to 6.00

CNc1cc(NC(=O)c2csc3ccccc23)c2c(c1)C(=O)NC2c1ccccc1C (stereo not drawn) [Compound I-39]
pIC50 (H1047R PIK3CA enzyme): ≥ 7.00
pIC50 (cells): 5.30 to 6.00

Cc1ccccc1C1NC(=O)c2cc(N)cc(NC(=O)c3cc(F)cc(C(F)(F)F)c3)c21 (stereo not drawn) [Compound I-40]
pIC50 (H1047R PIK3CA enzyme): ≥ 7.00
pIC50 (cells): 5.30 to 6.00

Cc1ccccc1C1NC(=O)c2cccc(NC(=O)N3CCc4ccccc43)c21 (stereo not drawn) [Compound I-43, N-[3-(2-methylphenyl)-1-oxo-2,3-dihydro-1H-isoindol-4-yl]-2,3-dihydro-1H-indole-1-carboxamide]
pIC50 (H1047R PIK3CA enzyme): ≥ 7.00
pIC50 (cells): 5.30 to 6.00

Cc1ccccc1C1NC(=O)c2cccc(NC(=O)N3CC(C)(C)c4ccccc43)c21 (stereo not drawn) [Compound I-45]
pIC50 (H1047R PIK3CA enzyme): 5.00 to 6.00
pIC50 (cells): 4.44 to 5.00

Cc1ccccc1C1NC(=O)c2cccc(NC(=O)c3csc4cnccc34)c21 (stereo not drawn) [Compound I-46]
pIC50 (H1047R PIK3CA enzyme): 6.30 to 7.00
pIC50 (cells): 4.44 to 5.00

Cc1ccccc1C1NC(=O)c2cc(N)cc(NC(=O)c3nsc4ccccc34)c21 (stereo not drawn) [Compound I-50, N-[6-Amino-3-(2-methylphenyl)-1-oxo-2,3-dihydro-1H-isoindol-4-yl]-1,2-benzothiazole-3-carboxamide]
pIC50 (H1047R PIK3CA enzyme): ≥ 7.00
pIC50 (cells): > 6.00

Cc1ccccc1C1NC(=O)c2cc(NC3COC3)cc(NC(=O)c3csc4ccccc34)c21 (stereo not drawn) [Compound I-51]
pIC50 (H1047R PIK3CA enzyme): ≥ 7.00
pIC50 (cells): > 6.00

CC(=O)Nc1cc(NC(=O)c2csc3ccccc23)c2c(c1)C(=O)NC2c1ccccc1C (stereo not drawn) [Compound I-52]
pIC50 (H1047R PIK3CA enzyme): ≥ 7.00
pIC50 (cells): > 6.00

Cc1ccccc1C1NC(=O)c2cc(NC(C)C)cc(NC(=O)c3csc4ccccc34)c21 (stereo not drawn) [Compound I-53]
pIC50 (H1047R PIK3CA enzyme): ≥ 7.00
pIC50 (cells): > 6.00

Cc1ccccc1C1NC(=O)c2cc(Br)cc(NC(=O)c3cc(F)cc(C(F)(F)F)c3)c21 (stereo not drawn) [Compound I-54]
pIC50 (H1047R PIK3CA enzyme): 6.30 to 7.00
pIC50 (cells): 5.30 to 6.00

CNC(=O)c1cc(NC(=O)c2csc3ccccc23)c2c(c1)C(=O)N[C@H]2c1ccccc1C [Compound I-76, (S)-7-(Benzo[b]thiophene-3-carboxamido)-N-methyl-3-oxo-1-(o-tolyl)isoindoline-5-carboxamide]
pIC50 (H1047R PIK3CA enzyme): ≥ 7.00
pIC50 (cells): > 6.00

O=C1NC(c2cc(F)ccc2Cl)c2c(NC(=O)c3nsc4ccccc34)cccc21 (stereo not drawn) [Compound I-83]
pIC50 (H1047R PIK3CA enzyme): ≥ 7.00
pIC50 (cells): > 6.00

Cc1ccccc1C1NC(=O)c2cc(CNC(=O)OC(C)(C)C)cc(NC(=O)c3csc4ccccc34)c21 (stereo not drawn) [Compound I-87]
pIC50 (H1047R PIK3CA enzyme): ≥ 7.00
pIC50 (cells): 5.30 to 6.00

Cc1ccccc1[C@@H]1NC(=O)c2cc(N)cc(NC(=O)c3nsc4ccccc34)c21 [Compound I-92]
pIC50 (H1047R PIK3CA enzyme): ≥ 7.00
pIC50 (cells): > 6.00

C=Cc1cc(NC(=O)c2csc3ccccc23)c2c(c1)C(=O)NC2c1ccccc1C (stereo not drawn) [Compound I-100, N-[6-Ethenyl-3-(2-methylphenyl)-1-oxo-2,3-dihydro-1H-isoindol-4-yl]-1-benzothiophene-3-carboxamide]
pIC50 (H1047R PIK3CA enzyme): ≥ 7.00
pIC50 (cells): 5.00 to 5.30

Cc1ccccc1C1NC(=O)c2cc(C(=O)NCC(F)F)cc(NC(=O)c3nsc4ccccc34)c21 (stereo not drawn) [Compound I-121]
pIC50 (H1047R PIK3CA enzyme): ≥ 7.00
pIC50 (cells): > 6.00

O=C1NC(c2ccccc2C(F)F)c2c(NC(=O)c3nsc4ccccc34)cccc21 (stereo not drawn) [Compound I-122]
pIC50 (H1047R PIK3CA enzyme): ≥ 7.00
pIC50 (cells): 5.30 to 6.00

O=C(Nc1cc(Br)cc2c1C(c1cc(F)ccc1Cl)NC2=O)c1cc(F)cc(C(F)(F)F)c1 (stereo not drawn) [Compound I-124]
pIC50 (H1047R PIK3CA enzyme): ≥ 7.00
pIC50 (cells): 5.30 to 6.00

Nc1cc(NC(=O)c2cc(F)cc(C(F)(F)F)c2)c2c(c1)C(=O)NC2c1cc(F)ccc1Cl (stereo not drawn) [Compound I-125]
pIC50 (H1047R PIK3CA enzyme): ≥ 7.00
pIC50 (cells): > 6.00

O=C1NC(c2cc(F)ccc2Cl)c2c(NC(=O)c3nsc4ccccc34)cc(Br)cc21 (stereo not drawn) [Compound I-144]
pIC50 (H1047R PIK3CA enzyme): ≥ 7.00
pIC50 (cells): 5.00 to 5.30

COCc1cc(NC(=O)c2nsc3ccccc23)c2c(c1)C(=O)NC2c1ccccc1C (stereo not drawn) [Compound I-146, N-(6-(Methoxymethyl)-1-oxo-3-(o-tolyl)isoindolin-4-yl)benzo[d]isothiazole-3-carboxamide]
pIC50 (H1047R PIK3CA enzyme): ≥ 7.00
pIC50 (cells): 5.00 to 5.30

COc1ccc(CNCc2cc(NC(=O)c3nsc4ccccc34)c3c(c2)C(=O)NC3c2cc(F)ccc2Cl)cc1 (stereo not drawn) [Compound I-155]
pIC50 (H1047R PIK3CA enzyme): ≥ 7.00
pIC50 (cells): 5.30 to 6.00

O=C(Nc1cc(-c2cn[nH]c2)nc2c1C(c1cc(F)ccc1Cl)NC2=O)c1cc(F)cc(C(F)(F)F)c1 (stereo not drawn) [Compound I-161]
pIC50 (H1047R PIK3CA enzyme): ≥ 7.00
pIC50 (cells): 5.30 to 6.00

CNC(=O)c1cc(NC(=O)c2nsc3ccccc23)c2c(c1)C(=O)N[C@@H]2c1ccccc1C [Compound I-164]
pIC50 (H1047R PIK3CA enzyme): 5.00 to 6.00
pIC50 (cells): 4.44 to 5.00

Cc1ccccc1[C@@H]1NC(=O)c2cc(C(=O)NCC(F)F)cc(NC(=O)c3nsc4ccccc34)c21 [Compound I-166]
pIC50 (H1047R PIK3CA enzyme): ≥ 7.00
pIC50 (cells): > 6.00

O=C1N[C@H](c2cc(F)ccc2C(F)F)c2c(NC(=O)c3nsc4ccccc34)cccc21 [Compound I-167]
pIC50 (H1047R PIK3CA enzyme): ≥ 7.00
pIC50 (cells): 5.30 to 6.00

CC(C)(O)c1cc(NC(=O)c2cc(F)cc(C(F)(F)F)c2)c2c(c1)C(=O)N[C@H]2c1cc(F)ccc1Cl [Compound I-189]
pIC50 (H1047R PIK3CA enzyme): ≥ 7.00
pIC50 (cells): > 6.00

CC(C)(O)c1cc(NC(=O)c2nsc3ccccc23)c2c(c1)C(=O)N[C@H]2c1cc(F)ccc1Cl [Compound I-192]
pIC50 (H1047R PIK3CA enzyme): ≥ 7.00
pIC50 (cells): > 6.00

Cc1ccccc1C1NC(=O)c2cc(CS(C)(=O)=O)cc(NC(=O)c3nsc4ccccc34)c21 (stereo not drawn) [Compound I-202, N-(6-((Methylsulfonyl)methyl)-1-oxo-3-(o-tolyl)isoindolin-4-yl)benzo[d]isothiazole-3-carboxamide]
pIC50 (H1047R PIK3CA enzyme): ≥ 7.00
pIC50 (cells): > 6.00

Nc1cc(NC(=O)c2cc(F)cc(C(F)(F)F)c2)c2c(c1)C(=O)N[C@H]2c1cc(F)ccc1Cl [Compound I-218]
pIC50 (H1047R PIK3CA enzyme): ≥ 7.00
pIC50 (cells): > 6.00

Cn1cc(-c2cc(NC(=O)c3cc(F)cc(C(F)(F)F)c3)c3c(c2)C(=O)NC3c2cc(F)ccc2C(F)F)cn1 (stereo not drawn) [Compound I-220]
pIC50 (H1047R PIK3CA enzyme): ≥ 7.00
pIC50 (cells): > 6.00

CC(C)(O)c1cc(NC(=O)c2cc(F)cc(C(F)(F)F)c2)c2c(c1)C(=O)N[C@H]2c1cc(F)ccc1C(F)F [Compound I-264]
pIC50 (H1047R PIK3CA enzyme): ≥ 7.00
pIC50 (cells): 5.30 to 6.00

Nc1cc(NC(=O)c2cc(F)cc(C(F)(F)F)c2)c2c(c1)C(=O)NC2c1cc(F)ccc1C(F)F (stereo not drawn) [Compound I-289]
pIC50 (H1047R PIK3CA enzyme): ≥ 7.00
pIC50 (cells): > 6.00

CC(C)(O)c1cc(NC(=O)c2cc(F)cc(Cl)c2)c2c(c1)C(=O)N[C@H]2c1cc(F)ccc1Cl [Compound I-298]
pIC50 (H1047R PIK3CA enzyme): ≥ 7.00
pIC50 (cells): > 6.00

O=C(Nc1cc(Br)cc2c1[C@H](c1cc(F)ccc1Cl)NC2=O)c1cc(F)cc(C(F)(F)F)c1 [Compound I-388]
pIC50 (H1047R PIK3CA enzyme): ≥ 7.00
pIC50 (cells): > 6.00

CNC(=O)c1cc(NC(=O)c2cc(F)cc(C(F)(F)F)c2)c2c(c1)C(=O)NC2c1cc(F)ccc1Cl (stereo not drawn) [Compound I-493]
pIC50 (H1047R PIK3CA enzyme): ≥ 7.00
pIC50 (cells): > 6.00

O=C(Nc1cccc2c1[C@H](c1cc(F)ccc1Cl)NC2=O)c1cc(F)cc(C(F)(F)F)c1 [Compound I-500]
pIC50 (H1047R PIK3CA enzyme): ≥ 7.00
pIC50 (cells): > 6.00

COCc1cc(NC(=O)c2cc(F)cc(C(F)(F)F)c2)c2c(c1)C(=O)N[C@H]2c1cc(F)ccc1Cl [Compound I-691]
pIC50 (H1047R PIK3CA enzyme): ≥ 7.00
pIC50 (cells): > 6.00

O=C(Nc1cc(-c2ccc(=O)n(C3CC3)c2)nc2c1[C@H](c1cc(F)ccc1Cl)NC2=O)c1cc(F)cc(C(F)(F)F)c1 [Compound I-747]
pIC50 (H1047R PIK3CA enzyme): ≥ 7.00
pIC50 (cells): > 6.00

Cn1cc(-c2cc(NC(=O)c3cc(F)cc(C(F)(F)F)c3)c3c(c2)C(=O)NC3c2cc(F)ccc2Cl)cn1 (stereo not drawn) [Compound I-811]
pIC50 (H1047R PIK3CA enzyme): ≥ 7.00
pIC50 (cells): > 6.00

O=C(Nc1cc(NC2COC2)cc2c1[C@H](c1cc(F)ccc1Cl)NC2=O)c1cc(F)cc(C(F)(F)F)c1 [Compound I-814]
pIC50 (H1047R PIK3CA enzyme): ≥ 7.00
pIC50 (cells): > 6.00

O=C(Nc1cc(-c2c[nH]nn2)cc2c1C(c1cc(F)ccc1Cl)NC2=O)c1cc(F)cc(C(F)(F)F)c1 (stereo not drawn) [Compound I-840]
pIC50 (H1047R PIK3CA enzyme): ≥ 7.00
pIC50 (cells): > 6.00
